Holding throughout (assay type): functional, cell-based
Assay [1] relates to NCI-H460. Nature of the assay: Cytotoxicity against human NCI-H460 cells after 72 hrs by Alamar blue assay. The following applies: NCI-H460, 72 h.
The subject of the next assay is Fibroblast. Nature of the assay: Induction of heat shock response in mouse fibroblasts expressing GFP at 2.5 uM after overnight incubation by fluorescence assay.
Assay [2] concerns MCF7. Description: Cytotoxicity against human MCF7 cells after 72 hrs by Alamar blue assay. The following applies: MCF7, 72 h.
In assay [3] the test system is SF-268. Nature of the assay: Cytotoxicity against human SF268 cells after 72 hrs by Alamar blue assay. To be noted: SF-268, 72 h.
Assay [4] in a line: Cytotoxicity against human PC3M cells after 72 hrs by Alamar blue assay. To be noted: PC-3M.
Assay [5] has as its system MDA-MB-231. Description: Cytotoxicity against human MDA-MB-231 cells after 72 hrs by Alamar blue assay. The following applies: MDA-MB-231, 72 h.
In assay [6] the test system is MDA-MB-231. Description: Cytotoxicity against human MDA-MB-231 cells at 5 uM after 72 hrs by Alamar blue assay.
Assay [7] concerns MCF7. Nature of the assay: Cytotoxicity against human MCF7 cells at 5 uM after 72 hrs by Alamar blue assay.
Assay [8] has as its system SF-268. Nature of the assay: Cytotoxicity against human SF268 cells at 5 uM after 72 hrs by Alamar blue assay.
Assay [9] concerns NCI-H460. Nature of the assay: Cytotoxicity against human NCI-H460 cells at 5 uM after 72 hrs by Alamar blue assay.
The next assay deals with PC-3M. Description: Cytotoxicity against human PC3M cells at 5 uM after 72 hrs by Alamar blue assay.

Activity calls are given as the source filed them. The calls are words filed in the database; no cut-off is given here.

The source of these data is ChEMBL document CHEMBL2021784, “Geopyxins A-E, ent-kaurane diterpenoids from endolichenic fungal strains Geopyxis aff. majalis and Geopyxis sp. AZ0066: structure-activity relationships of geopyxins and their analogues” (J Nat Prod, 2012).

Take `C=C1C(=O)[C@]23C[C@H]1CC[C@H]2[C@]1(C)CCC[C@@](C)(C(=O)O)[C@H]1C[C@@H]3O` [GEOPYXIN B]: the IC50 in the assay on NCI-H460 [1] was 2250 nM; in the assay with MCF7 [2] it was 4320 nM; in the assay with SF-268 [3] it was 2350 nM; in assay [4], 5410 nM; in the assay on MDA-MB-231 [5], 3310 nM. Moreover, the outcome in the assay with Fibroblast was Active.
As for `C=C1C(=O)[C@]23C[C@H]1CC[C@H]2[C@]1(C)[C@@H](OC(C)=O)CC[C@@](C)(C(=O)O)[C@H]1C[C@@H]3O`, the IC50 in the assay on NCI-H460 [1] amounted to 3520 nM; in the assay on MCF7 [2], 3480 nM; in the assay on SF-268 [3] it was 2370 nM; in assay [4], 3880 nM; with MDA-MB-231 [5], 4110 nM. Further, the outcome in the assay with Fibroblast was inactive.
Consider `C=C1C(=O)[C@]23C[C@H]1CC[C@H]2[C@]1(C)[C@@H](O)CC[C@@](C)(C(=O)O)[C@H]1C[C@@H]3O`, for which the outcome in the assay with MDA-MB-231 [6], in the assay on MCF7 [7], with SF-268 [8], with NCI-H460 [9] and in the assay with PC-3M was inactive.
Turning to `C=C1C(=O)[C@]23C[C@H]1C[C@H](O)[C@H]2[C@]1(C)CCC[C@@](C)(C(=O)O)[C@H]1C[C@@H]3O`, the outcome in the assay with MDA-MB-231 [6], in the assay on MCF7 [7], in the assay on SF-268 [8], in the assay on NCI-H460 [9] and in the assay with PC-3M was inactive.
Consider `C=C1C(=O)[C@]23C[C@H]1CC[C@H]2[C@]1(C)C(=O)CC[C@@](C)(C(=O)OC)[C@H]1C[C@@H]3O` [METHYLGEOPYXIN C], for which the IC50 in the assay on NCI-H460 [1] is 2280 nM; with MCF7 [2] it was 1670 nM; in the assay on SF-268 [3], 1560 nM; in assay [4] it was 3630 nM; in the assay with MDA-MB-231 [5] it was 3380 nM. Also, in the assay on Fibroblast, the result was inactive.
On to `COc1cccc2c1C(=O)c1c(O)c3c(c(O)c1C2=O)C[C@@](O)(C(=O)CO)C[C@@H]3O[C@H]1C[C@H](N)[C@H](O)[C@H](C)O1` [DOXORUBICIN], for which the IC50 with NCI-H460 [1] came to 420 nM; with MCF7 [2], 420 nM; in the assay on SF-268 [3], 620 nM; in [4], 240 nM; in the assay on MDA-MB-231 [5], 580 nM.
On to `C=C1C(=O)[C@]23C[C@H]1CC[C@H]2[C@]1(C)[C@@H](OC(C)=O)CC[C@@](C)(C(=O)OC)[C@H]1C[C@@H]3O`, for which the IC50 turned out to be 820 nM with NCI-H460 [1]; 530 nM in the assay on MCF7 [2]; 660 nM in the assay with SF-268 [3]; 1540 nM in assay [4]; 1150 nM in the assay with MDA-MB-231 [5]. In addition, the outcome in the assay with Fibroblast was Active.
For `C=C1C(=O)[C@]23C[C@H]1CC[C@H]2[C@]1(C)[C@@H](O)[C@@H](O)C[C@@](C)(C(=O)O)[C@H]1C[C@@H]3O`, the result in the assay on MDA-MB-231 [6], in the assay with MCF7 [7], with SF-268 [8], in the assay on NCI-H460 [9] and with PC-3M was inactive.
Turning to `C[C@]12[C@@H]3CC[C@@H]4C[C@]3(C(=O)[C@@H]4CO)[C@@H](O)C[C@@H]1[C@](C)(C(=O)O)CC[C@@H]2O`, the result with MDA-MB-231 [6], with MCF7 [7], with SF-268 [8], in the assay with NCI-H460 [9] and in the assay on PC-3M was inactive.
For `C=C1C(=O)[C@]23C[C@H]1CC[C@H]2[C@]1(C)[C@@H](OC(C)=O)CC[C@@](C)(C(=O)O)[C@H]1C[C@@H]3OC(C)=O`, the result in the assay with MDA-MB-231 [6], with MCF7 [7], in the assay on SF-268 [8], in the assay with NCI-H460 [9] and in the assay with PC-3M was inactive.
For `C=C1C(=O)[C@]23C[C@H]1CC[C@H]2[C@]1(C)[C@@H](OC(C)=O)CC[C@@](C)(C(=O)OC)[C@H]1C[C@@H]3OC(C)=O`, the IC50 with NCI-H460 [1] is 1260 nM; with MCF7 [2], 1180 nM; in the assay with SF-268 [3], 1180 nM; in [4], 2310 nM; with MDA-MB-231 [5] it was 1930 nM. Further, the outcome with Fibroblast was inactive.
For `C=C1C(=O)[C@]23C[C@H]1CC[C@H]2[C@]1(C)CCC[C@@](C)(C(=O)OC)[C@H]1C[C@@H]3O` [METHYLGEOPYXIN B], the IC50 worked out at 920 nM with NCI-H460 [1]; 630 nM with MCF7 [2]; 690 nM with SF-268 [3]; 1480 nM in assay [4]; 910 nM with MDA-MB-231 [5]. Moreover, the result in the assay on Fibroblast was inactive.
On to `C=C1C(=O)[C@]23C[C@H]1CC[C@H]2[C@]1(C)[C@@H](O)[C@@H](O)C[C@@](C)(C(=O)OC)[C@H]1C[C@@H]3O` [METHYLGEOPYXIN E], for which the IC50 came out at 2270 nM in the assay on NCI-H460 [1]; 2080 nM in the assay on MCF7 [2]; 1020 nM in the assay on SF-268 [3]; 3990 nM in assay [4]; 3810 nM in the assay with MDA-MB-231 [5]. For the same molecule, the outcome in the assay with Fibroblast was inactive.
Turning to `C=C1C(=O)[C@]23C[C@H]1CC[C@H]2[C@]1(C)[C@@H](O)CC[C@@](C)(C(=O)OC)[C@H]1C[C@@H]3O` [METHYLGEOPYXIN A], the IC50 with NCI-H460 [1] was 1080 nM; in the assay on MCF7 [2], 790 nM; in the assay with SF-268 [3], 720 nM; in assay [4], 2270 nM; with MDA-MB-231 [5] it was 730 nM. Also, in the assay on Fibroblast, the outcome was inactive.
In the case of `C=C1C(=O)[C@]23C[C@H]1CC[C@H]2[C@]1(C)C(=O)CC[C@@](C)(C(=O)O)[C@H]1C[C@@H]3O`, the result with MDA-MB-231 [6], with MCF7 [7], in the assay with SF-268 [8], with NCI-H460 [9] and in the assay on PC-3M was inactive.
Regarding `COC(=O)[C@]1(C)CC[C@H](O)[C@@]2(C)[C@@H]3CC[C@@H]4C[C@]3(C(=O)[C@@H]4CO)[C@@H](O)C[C@@H]21`, the outcome in the assay on MDA-MB-231 [6], in the assay with MCF7 [7], in the assay on SF-268 [8], with NCI-H460 [9] and with PC-3M was inactive.
